# Measured values published in patent US6737383B1, “Herbicidal oxadiazolidines” (priority 1999, dated 2004).
# Assays:
# [1] = test system: winter wheat; experiment: Test E winter wheat; assay type: in vivo, Triticum aestivum; conditions: Postemergence; for Wheat (winter) plant response rating: Rate 250 g/ha
# In short: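 Visual evaluation versus untreated controls after about 21 to 28 days in the greenhouse. Compound was in a surfactant-containing non-phytotoxic solvent; postemergence plants were treated at the 1- to 4-leaf stage, grown in a 60:40 sandy loam and potting mix blend.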
# [2] = test system: wheat; experiment: Test B pre/postemergence wheat; assay type: in vivo, Triticum aestivum
# In short: (§1)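 Test chemicals in a non-phytotoxic solvent mixture with surfactant were sprayed preemergence onto planted seeds and postemergence onto plants 2 to 18 cm tall (1- to 4-leaf stage). After twelve to sixteen days in a greenhouse, injury was visually rated against untreated controls from 0 (no effect) to 10 (complete control).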
# [3] = test system: winter barley; experiment: Test E winter barley; assay type: in vivo, Hordeum vulgare; conditions: Preemergence; for Barley (winter) plant response rating (0 to 100 scale): Rate 250 g/ha
# [4] = test system: duck salad; experiment: Test B flood test duck salad; assay type: in vivo, Heteranthera limosa
# In short: (§2)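 Flood test on plants grown to the 2-leaf stage; treated plants kept in greenhouse twelve to sixteen days, then visually rated against controls on a 0 (no effect) to 10 (complete control) scale.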
# [5] = test system: wild oat; experiment: Test E wild oat; assay type: in vivo, Avena fatua; conditions: Preemergence; for Wild oat plant response rating (0 to 100 scale): Rate 250 g/ha
# [6] = test system: Italian ryegrass; experiment: Test E Italian ryegrass; assay type: in vivo, Lolium multiflorum; conditions: Preemergence; for I. Ryegrass plant response rating (0 to 100 scale): Rate 250 g/ha
# [7] = test system: rice; experiment: Test B flood test rice; assay type: in vivo, Oryza sativa
# In short: as §2
# [8] = test system: blackgrass; experiment: Test E blackgrass; assay type: in vivo, Alopecurus myosuroides; conditions: Preemergence; for Blackgrass plant response rating (0 to 100 scale): Rate 250 g/ha
# [9] = test system: winter wheat; experiment: Test E winter wheat; assay type: in vivo, Triticum aestivum; conditions: Preemergence; for Wheat (winter) plant response rating (0 to 100 scale): Rate 250 g/ha
# [10] = test system: green foxtail; experiment: Test E green foxtail; assay type: in vivo, Setaria viridis; conditions: Preemergence; for Green foxtail plant response rating (0 to 100 scale): Rate 250 g/ha
# [11] = test system: bedstraw; experiment: Test B pre/postemergence bedstraw; assay type: in vivo, Galium aparine
# In short: as §1
# [12] = Rate 1000 g/ha, 0 to 100 scale where 0 is no effect and 100 is complete control
# [13] = 0 to 100 scale where 0 is no effect and 100 is complete control
# [14] = Preemergence, Rate 62 g/ha, scale of 0 to 10 where 0 is no effect and 10 is complete control
# [15] = Preemergence, Rate 250 g/ha, scale of 0 to 10 where 0 is no effect and 10 is complete control
# [16] = Preemergence, Rate 500 g/ha, scale of 0 to 10 where 0 is no effect and 10 is complete control
# [17] = Rate 62 g/ha, Postemergence, scale of 0 to 10 where 0 is no effect and 10 is complete control
# [18] = Rate 125 g/ha, Preemergence, scale of 0 to 10 where 0 is no effect and 10 is complete control
# [19] = Rate 500 g/ha, Postemergence, scale 0 to 10, 0 no effect, 10 complete control
# [20] = Rate 1000 g/ha, 0 to 100 scale, 0 no effect, 100 complete control
# [21] = Rate 62 g/ha, headed Pre-emergence (flood test species), scale 0 to 10 (0 no effect, 10 complete control)
# [22] = Rate 125 g/ha, Pre-emergence, flood test species, scale 0 to 10 where 0 is no effect and 10 is complete control
# [23] = Rate 250 g/ha, Pre-emergence, flood-test species, scale 0 to 10, 0 is no effect, 10 is complete control
# [24] = Rate 500 g/ha, Pre-emergence, flood test species, scale 0 to 10 (0 no effect, 10 complete control)
# [25] = Rate 125 g/ha, Postemergence, scale 0 to 10
# [26] = Rate 500 g/ha, 0 to 100 scale, 0 is no effect, 100 is complete control
# [27] = Rate 500 g/ha, 0 to 100 scale where 0 is no effect and 100 is complete control
# [28] = Rate 125 g/ha, Postemergence, scale of 0 to 10 where 0 is no effect and 10 is complete control
# [29] = Rate 250 g/ha, Postemergence, scale of 0 to 10 where 0 is no effect and 10 is complete control
# [30] = Rate 62 g/ha, Postemergence, scale 0 to 10 (0 no effect, 10 complete control)
# [31] = Rate 500 g/ha, 0 to 100 scale (0 no effect, 100 complete control)
smiles,measurement,setting,value
CC(C)N(C(=O)n1oc(=O)n([C@H](C)c2ccccc2)c1=O)c1ccc(F)cc1F [Compound 238],"Plant response rating, Wheat (winter)",[1]; [12],40
same,Wheat (winter) plant response rating,[1]; [13],60
same,Wheat plant response rating,[2]; [14],0
same,Wheat plant response rating,[2]; [15],0
same,"Plant response rating, Wheat",[2]; [16],2
same,Wheat plant response rating,[2]; [17],0
same,Wheat plant response rating,[2]; [18],0
same,Wheat plant response rating,[2]; [19],0
same,Barley (winter) plant response rating (0 to 100 scale),[3],40
same,"Plant response rating, Barley (winter)",[3]; [20],30
same,Ducksalad plant response rating,[4]; [21],0
same,Ducksalad plant response rating,[4]; [22],0
same,Ducksalad plant response rating,[4]; [23],0
same,Ducksalad plant response rating,[4]; [24],0
same,Wild oat plant response rating (0 to 100 scale),[5],50
same,"Plant response rating, Wild oat",[5]; [20],50
same,I. Ryegrass plant response rating (0 to 100 scale),[6],50
same,"Plant response rating, I. Ryegrass",[6]; [20],85
same,Rice plant response rating,[7]; [21],0
same,Rice plant response rating,[7]; [22],0
same,Rice plant response rating,[7]; [23],0
same,Rice plant response rating,[7]; [24],0
same,Blackgrass plant response rating (0 to 100 scale),[8],50
same,"Plant response rating, Blackgrass",[8]; [20],75
same,Wheat (winter) plant response rating (0 to 100 scale),[9],40
same,"Plant response rating, Wheat (winter)",[9]; [20],50
same,Green foxtail plant response rating (0 to 100 scale),[10],70
same,"Plant response rating, Green foxtail",[10]; [20],100
same,Bedstraw plant response rating,[11]; [14],0
same,Bedstraw plant response rating,[11]; [15],0
same,"Plant response rating, Bedstraw",[11]; [16],3
same,Bedstraw plant response rating,[11]; [17],0
same,Bedstraw plant response rating,[11]; [25],2
same,Bedstraw plant response rating,[11]; [18],0
same,"Plant response rating (0 to 10; 0 is no effect, 10 is complete control), Bedstraw","[11]; Rate 250 g/ha, Postemergence",8
same,Bedstraw plant response rating,[11]; [19],8
CC(C)N(C(=O)n1oc(=O)n(CC(C)(C)C)c1=O)c1ccc(F)cc1 [Compound 246],"Plant response rating, Wheat (winter)",[1]; [12],0
same,Wheat (winter) plant response rating,[1]; [13],0
same,"Plant response rating, Wheat (winter)",[1]; [26],0
same,Wheat plant response rating,[2]; [14],0
same,Wheat plant response rating,[2]; [15],0
same,"Plant response rating, Wheat",[2]; [16],5
same,Wheat plant response rating,[2]; [18],0
same,Wheat plant response rating,[2]; [19],4
same,Barley (winter) plant response rating (0 to 100 scale),[3],40
same,"Plant response rating, Barley (winter)",[3]; [27],50
same,"Plant response rating, Barley (winter)",[3]; [20],60
same,Ducksalad plant response rating,[4]; [21],0
same,Ducksalad plant response rating,[4]; [22],0
same,Ducksalad plant response rating,[4]; [23],0
same,Ducksalad plant response rating,[4]; [24],0
same,Wild oat plant response rating (0 to 100 scale),[5],50
same,"Plant response rating, Wild oat",[5]; [27],65
same,"Plant response rating, Wild oat",[5]; [20],85
same,I. Ryegrass plant response rating (0 to 100 scale),[6],80
same,"Plant response rating, I. Ryegrass",[6]; [27],90
same,"Plant response rating, I. Ryegrass",[6]; [20],100
same,Rice plant response rating,[7]; [21],0
same,Rice plant response rating,[7]; [22],0
same,Rice plant response rating,[7]; [23],0
same,Rice plant response rating,[7]; [24],0
same,Blackgrass plant response rating (0 to 100 scale),[8],60
same,"Plant response rating, Blackgrass",[8]; [27],100
same,"Plant response rating, Blackgrass",[8]; [20],100
same,Wheat (winter) plant response rating (0 to 100 scale),[9],50
same,"Plant response rating, Wheat (winter)",[9]; [20],50
same,Green foxtail plant response rating (0 to 100 scale),[10],100
same,"Plant response rating, Green foxtail",[10]; [27],100
same,"Plant response rating, Green foxtail",[10]; [20],100
same,Bedstraw plant response rating,[11]; [14],0
same,Bedstraw plant response rating,[11]; [15],0
same,"Plant response rating, Bedstraw",[11]; [16],2
same,Bedstraw plant response rating,[11]; [17],7
same,Bedstraw plant response rating,[11]; [25],7
same,Bedstraw plant response rating,[11]; [18],0
same,"Plant response rating (0 to 10; 0 is no effect, 10 is complete control), Bedstraw","[11]; Rate 250 g/ha, Postemergence",9
same,Bedstraw plant response rating,[11]; [19],9
Cc1cccc(C)c1-n1c(=O)on(C(=O)N(C(C)C)C2C=CCCC2)c1=O (stereo not drawn) [Compound 273],"Plant response rating, Wheat (winter)",[1]; [12],60
same,Wheat (winter) plant response rating,[1]; [13],30
same,"Plant response rating, Wheat (winter)",[1]; [26],50
same,Wheat plant response rating,[2]; [14],0
same,Wheat plant response rating,[2]; [15],0
same,"Plant response rating, Wheat",[2]; [16],0
same,Wheat plant response rating,[2]; [28],0
same,Wheat plant response rating,[2]; [18],0
same,"Plant response rating, Wheat",[2]; [29],0
same,Wheat plant response rating,[2]; [19],0
same,Barley (winter) plant response rating (0 to 100 scale),[3],70
same,"Plant response rating, Barley (winter)",[3]; [27],65
same,"Plant response rating, Barley (winter)",[3]; [20],80
same,Ducksalad plant response rating,[4]; [21],0
same,Ducksalad plant response rating,[4]; [22],0
same,Ducksalad plant response rating,[4]; [23],0
same,Ducksalad plant response rating,[4]; [24],0
same,Wild oat plant response rating (0 to 100 scale),[5],80
same,"Plant response rating, Wild oat",[5]; [27],70
same,"Plant response rating, Wild oat",[5]; [20],80
same,I. Ryegrass plant response rating (0 to 100 scale),[6],30
same,"Plant response rating, I. Ryegrass",[6]; [27],55
same,"Plant response rating, I. Ryegrass",[6]; [20],60
same,Rice plant response rating,[7]; [21],0
same,Rice plant response rating,[7]; [22],0
same,Rice plant response rating,[7]; [23],0
same,Rice plant response rating,[7]; [24],0
same,Blackgrass plant response rating (0 to 100 scale),[8],55
same,"Plant response rating, Blackgrass",[8]; [27],80
same,"Plant response rating, Blackgrass",[8]; [20],100
same,Wheat (winter) plant response rating (0 to 100 scale),[9],50
same,"Plant response rating, Wheat (winter)",[9]; [27],60
same,"Plant response rating, Wheat (winter)",[9]; [20],60
same,Green foxtail plant response rating (0 to 100 scale),[10],20
same,"Plant response rating, Green foxtail",[10]; [27],30
same,"Plant response rating, Green foxtail",[10]; [20],60
same,Bedstraw plant response rating,[11]; [14],0
same,Bedstraw plant response rating,[11]; [15],0
same,Bedstraw plant response rating,[11]; [17],0
same,Bedstraw plant response rating,[11]; [28],0
same,Bedstraw plant response rating,[11]; [18],0
same,"Plant response rating, Bedstraw",[11]; [29],0
same,Bedstraw plant response rating,[11]; [19],0
CC(C)N(C(=O)n1oc(=O)n(C2CCCC2)c1=O)c1ccccc1 [Compound 283],"Plant response rating, Wheat (winter)",[1]; [12],75
same,Wheat (winter) plant response rating,[1]; [13],60
same,"Plant response rating, Wheat (winter)",[1]; [26],50
same,Wheat plant response rating,[2]; [14],0
same,Wheat plant response rating,[2]; [15],1
same,"Plant response rating, Wheat",[2]; [16],6
same,Wheat plant response rating,[2]; [30],0
same,Wheat plant response rating,[2]; [28],0
same,Wheat plant response rating,[2]; [18],0
same,"Plant response rating, Wheat",[2]; [29],0
same,Wheat plant response rating,[2]; [19],0
same,Barley (winter) plant response rating (0 to 100 scale),[3],60
same,"Plant response rating, Barley (winter)",[3]; [31],75
same,"Plant response rating, Barley (winter)",[3]; [20],80
same,Ducksalad plant response rating,[4]; [21],0
same,Ducksalad plant response rating,[4]; [22],0
same,Ducksalad plant response rating,[4]; [23],0
same,Ducksalad plant response rating,[4]; [24],0
same,Wild oat plant response rating (0 to 100 scale),[5],65
same,"Plant response rating, Wild oat",[5]; [31],50
same,"Plant response rating, Wild oat",[5]; [20],70
same,I. Ryegrass plant response rating (0 to 100 scale),[6],70
same,"Plant response rating, I. Ryegrass",[6]; [31],90
same,"Plant response rating, I. Ryegrass",[6]; [20],98
same,Rice plant response rating,[7]; [21],0
same,Rice plant response rating,[7]; [22],0
same,Rice plant response rating,[7]; [23],0
same,Rice plant response rating,[7]; [24],1
same,Blackgrass plant response rating (0 to 100 scale),[8],50
same,"Plant response rating, Blackgrass",[8]; [31],60
same,"Plant response rating, Blackgrass",[8]; [20],85
same,Wheat (winter) plant response rating (0 to 100 scale),[9],50
same,"Plant response rating, Wheat (winter)",[9]; [31],65
same,"Plant response rating, Wheat (winter)",[9]; [20],80
same,Green foxtail plant response rating (0 to 100 scale),[10],100
same,"Plant response rating, Green foxtail",[10]; [31],100
same,"Plant response rating, Green foxtail",[10]; [20],100
same,Bedstraw plant response rating,[11]; [14],0
same,Bedstraw plant response rating,[11]; [15],1
same,"Plant response rating, Bedstraw",[11]; [16],9
same,Bedstraw plant response rating,[11]; [30],0
same,Bedstraw plant response rating,[11]; [28],1
same,Bedstraw plant response rating,[11]; [18],0
same,"Plant response rating, Bedstraw",[11]; [29],5
same,Bedstraw plant response rating,[11]; [19],6
